Legend:
[1] = system: salicylate-induced tinnitus in rats; settings: cited from earlier work
Fmr1 knockout mouse = settings: cited from earlier work
maxi-K channels = maxi-K channels (Homo sapiens, UniProt Q12791); settings: cited from earlier work
[2] = system: rat models of permanent large-vessel stroke; settings: cited from earlier work
[3] = target: T1, BKCa channels formed by the exon-less alpha subunit (Homo sapiens, UniProt Q12791); experiment: Whole-cell BKCa current in HEK293 cells expressing the alpha subunit alone; format: cell-based; settings: HEK293
T1 construct: expressed in transfected cells; host or cells: HEK293
T1 sequence (Q12791 1-1178 isoform Q12791-5): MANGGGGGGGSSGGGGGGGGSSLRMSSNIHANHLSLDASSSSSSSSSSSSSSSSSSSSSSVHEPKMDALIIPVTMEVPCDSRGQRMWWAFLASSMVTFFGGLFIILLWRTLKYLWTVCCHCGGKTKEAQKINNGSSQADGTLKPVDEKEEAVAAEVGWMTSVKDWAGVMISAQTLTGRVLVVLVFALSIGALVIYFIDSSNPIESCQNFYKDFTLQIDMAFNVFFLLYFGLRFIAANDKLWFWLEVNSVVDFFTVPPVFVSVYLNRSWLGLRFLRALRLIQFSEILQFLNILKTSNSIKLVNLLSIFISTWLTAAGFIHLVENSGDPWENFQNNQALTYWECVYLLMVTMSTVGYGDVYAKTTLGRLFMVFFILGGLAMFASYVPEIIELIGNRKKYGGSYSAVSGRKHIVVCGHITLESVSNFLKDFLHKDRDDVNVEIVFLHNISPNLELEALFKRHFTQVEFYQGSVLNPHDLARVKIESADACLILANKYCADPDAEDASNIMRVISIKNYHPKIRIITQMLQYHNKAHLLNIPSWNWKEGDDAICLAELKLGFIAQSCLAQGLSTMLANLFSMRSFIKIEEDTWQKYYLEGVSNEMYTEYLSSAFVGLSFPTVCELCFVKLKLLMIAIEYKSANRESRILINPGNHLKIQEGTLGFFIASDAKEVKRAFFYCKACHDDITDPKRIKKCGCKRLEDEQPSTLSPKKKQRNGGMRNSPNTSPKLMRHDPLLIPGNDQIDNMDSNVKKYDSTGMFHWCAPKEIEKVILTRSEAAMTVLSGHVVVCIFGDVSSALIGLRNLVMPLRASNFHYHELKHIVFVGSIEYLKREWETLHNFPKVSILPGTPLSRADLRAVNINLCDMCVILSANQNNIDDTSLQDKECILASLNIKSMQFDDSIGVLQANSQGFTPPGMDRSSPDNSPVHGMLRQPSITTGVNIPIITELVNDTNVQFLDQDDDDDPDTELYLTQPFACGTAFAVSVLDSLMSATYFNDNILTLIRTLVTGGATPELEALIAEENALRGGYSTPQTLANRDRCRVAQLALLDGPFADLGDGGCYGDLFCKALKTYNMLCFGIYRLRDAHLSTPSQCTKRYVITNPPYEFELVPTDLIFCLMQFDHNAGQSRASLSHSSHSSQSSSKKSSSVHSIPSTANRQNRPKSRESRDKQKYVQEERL

KNCMA1 = target: T2, KNCMA1 (Sus scrofa, UniProt O18866); experiment: Whole-cell current in primary pig aortic endothelial cells; format: cell-based
T2 construct: endogenous in cells; host or cells: primary pig aortic endothelial cells
T2 sequence (O18866 whole entry): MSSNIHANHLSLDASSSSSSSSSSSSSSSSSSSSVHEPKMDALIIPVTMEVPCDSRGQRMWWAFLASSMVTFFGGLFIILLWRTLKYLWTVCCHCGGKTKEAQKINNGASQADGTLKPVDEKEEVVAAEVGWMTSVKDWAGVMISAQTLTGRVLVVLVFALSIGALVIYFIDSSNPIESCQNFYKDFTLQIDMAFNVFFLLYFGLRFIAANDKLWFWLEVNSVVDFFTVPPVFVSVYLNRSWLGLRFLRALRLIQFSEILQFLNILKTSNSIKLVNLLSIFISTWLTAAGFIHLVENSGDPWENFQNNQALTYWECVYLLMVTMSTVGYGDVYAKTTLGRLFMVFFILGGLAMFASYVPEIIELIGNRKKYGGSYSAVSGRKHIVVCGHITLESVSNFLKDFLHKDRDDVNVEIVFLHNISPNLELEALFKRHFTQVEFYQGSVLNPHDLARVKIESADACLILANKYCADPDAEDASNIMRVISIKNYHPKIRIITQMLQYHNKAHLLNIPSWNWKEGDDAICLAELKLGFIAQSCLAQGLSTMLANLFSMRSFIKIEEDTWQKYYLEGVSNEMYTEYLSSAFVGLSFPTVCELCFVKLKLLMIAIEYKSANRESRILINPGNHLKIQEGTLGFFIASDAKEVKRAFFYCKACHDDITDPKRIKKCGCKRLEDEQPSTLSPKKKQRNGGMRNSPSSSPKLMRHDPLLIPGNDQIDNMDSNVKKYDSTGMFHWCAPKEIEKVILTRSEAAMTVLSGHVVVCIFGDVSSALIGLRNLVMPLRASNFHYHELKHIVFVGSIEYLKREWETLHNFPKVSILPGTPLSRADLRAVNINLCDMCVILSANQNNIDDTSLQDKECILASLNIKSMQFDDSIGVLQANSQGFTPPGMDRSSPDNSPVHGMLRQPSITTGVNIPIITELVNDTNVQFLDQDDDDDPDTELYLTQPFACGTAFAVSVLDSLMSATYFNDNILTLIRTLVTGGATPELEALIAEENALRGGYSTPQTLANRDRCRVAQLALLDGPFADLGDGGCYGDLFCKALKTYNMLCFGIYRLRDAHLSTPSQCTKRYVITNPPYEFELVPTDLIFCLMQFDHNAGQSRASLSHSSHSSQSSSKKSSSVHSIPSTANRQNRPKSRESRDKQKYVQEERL
Excerpt: Pig aortic endothelial cells only express KNCMAI and not KNCMB1-4 (Papassotiriou et al). Thus, the absence of stimulation indicates a lack of effect on KNCMA1.

[4] = system: C57BL/6.Fmr1 knockout mice; experiment: Contextual fear conditioning in Fmr1 knockout mice; format: in vivo, mouse; settings: wildtype mice; 2 mg/kg
Method: Animals: C57BL/6.J. Fmr1-K02 mice, which have a deletion of the promoter and exonl of the Fmr1 gene (Mientjes et al., 2006) and C57BL/6J wild type (WT) were originated from the Jackson laboratory (Ann Harbor, USA). Mice were housed in groups (4-6 per cage) and all animals were provided with ad libitum food and water unless otherwise stated. Mice were maintained on a 12 h light/12 h dark cycle (lights off 19:00 to 7:00) in a temperature-controlled environment (21±1° C.). Testing was conducted in the light phase. Mice were housed in commercial cages and experiments were performed in line with the United Kingdom Animals (Scientific procedures) Act 1986. All experiments were conducted with experimentors blind to genotype and drug treatment. Each experimental group contained 10 animals.
Drug Treatment: VSN16R was dissolved in saline for injection intravenously via a tail vein using 2 mg/kg a 30 g needle in a volume of 0.1 ml. Animals were inspected for differences in coat appearance, to detect whether any piloerection was present. The eye condition (runny eyes or porphyria, ptosis), gait appearance, tremor, tail tone, reactivity to handling was assessed to detect adverse behavioural effect.
Contextual fear conditioning: Animals are trained to expect an electroshock treatment within a defined environment, such that on subsequent presentation of the environment, freezing behaviours are induced. […]

mesenteric arteries = settings: cited from earlier work
BK channel [5] = target: T3, BK channel (Homo sapiens, UniProt Q12791); experiment: Inside-out patch clamp (single channel) on EA.hy926 cells; format: cell-based; design: The human umbilical vein derived endothelial cell line, EA.hy926; endogenous in cells; host or cells: EA.hy926 human endothelial cell line; settings: human EA.hy926 cells, calcium dependent
Method: The human umbilical vein derived endothelial cell line, EA.hy926 (Edgell et al., Proc Natl Acad Sci USA. 1983 June; 80(12): 3734-7) at passage >45 was grown in DMEM containing 10% FCS and 1% HAT (5 mM hypoxanthine, 20 μM aminopterin, 0.8 mM thymidine) and cells were maintained in an incubator at 37° C. in 5% CO2 atmosphere. Cells were plated on either 10 mm (for patch-clamp recordings) or 30 mm glass cover slips (for Ca^2+ measurements).
Single-channel recordings were obtained from excised inside-out membrane patches in symmetrical solutions. The pipettes were filled with (in mM) 140 KCl, 10 HEPES, 1 MgCl2, 5 EGTA, 4,931 CaCl2 with pH 7.2 by adding KOH (i.e. 10 μM free Ca^2+, G. Droogmans, Leuven, Belgium; ftp://ftp.cc.kuleuven.ac.be/pub/droodmans/cabuf.zip). Cells were perfused with a standard bath solution containing (in mM) 140 NaCl, 5 KCl, 1.2 MgCl2, 10 HEPES, 10 glucose, 2.4 CaCl2. Following gigaseal formation, bath solution was switched to the following (in mM) 140 KCl, 10 HEPES, 1 MgCl2, 5 EGTA and a desired free Ca^2+ concentration which was adjusted by adding different amounts of CaCl2 calculated by the program CaBuf. pH was adjusted to 7.2 by adding KOH. Membrane currents and potential were recorded using a List EPC7 amplifier (List, Germany) and pClamp (version 8.2, Axon Instruments) software.
Target sequence in this assay (Q12791 1-1178 isoform Q12791-5): as the sequence (Q12791 1-1178 isoform Q12791-5) above
Target sequence in this assay (Q86W47 whole entry partner): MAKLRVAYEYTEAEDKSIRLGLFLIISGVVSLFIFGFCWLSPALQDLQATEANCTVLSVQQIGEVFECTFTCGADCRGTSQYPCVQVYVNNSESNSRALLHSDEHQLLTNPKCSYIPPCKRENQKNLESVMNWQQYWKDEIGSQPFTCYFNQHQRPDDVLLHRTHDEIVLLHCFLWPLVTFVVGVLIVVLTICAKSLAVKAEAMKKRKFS

[6] = system: OVA- and HDM-sensitized mice; settings: cited from earlier work
[7] = system: murine ex vivo lung slices; settings: cited from earlier work
isolated hearts = settings: after cold cardioplegic arrest; cited from earlier work
BK channel [8] = target: T3, BK channel; design: host or cells: human airway smooth muscle (ASM) cells; settings: human ASM cells; cited from earlier work
Target sequence in this assay (Q12791 whole entry): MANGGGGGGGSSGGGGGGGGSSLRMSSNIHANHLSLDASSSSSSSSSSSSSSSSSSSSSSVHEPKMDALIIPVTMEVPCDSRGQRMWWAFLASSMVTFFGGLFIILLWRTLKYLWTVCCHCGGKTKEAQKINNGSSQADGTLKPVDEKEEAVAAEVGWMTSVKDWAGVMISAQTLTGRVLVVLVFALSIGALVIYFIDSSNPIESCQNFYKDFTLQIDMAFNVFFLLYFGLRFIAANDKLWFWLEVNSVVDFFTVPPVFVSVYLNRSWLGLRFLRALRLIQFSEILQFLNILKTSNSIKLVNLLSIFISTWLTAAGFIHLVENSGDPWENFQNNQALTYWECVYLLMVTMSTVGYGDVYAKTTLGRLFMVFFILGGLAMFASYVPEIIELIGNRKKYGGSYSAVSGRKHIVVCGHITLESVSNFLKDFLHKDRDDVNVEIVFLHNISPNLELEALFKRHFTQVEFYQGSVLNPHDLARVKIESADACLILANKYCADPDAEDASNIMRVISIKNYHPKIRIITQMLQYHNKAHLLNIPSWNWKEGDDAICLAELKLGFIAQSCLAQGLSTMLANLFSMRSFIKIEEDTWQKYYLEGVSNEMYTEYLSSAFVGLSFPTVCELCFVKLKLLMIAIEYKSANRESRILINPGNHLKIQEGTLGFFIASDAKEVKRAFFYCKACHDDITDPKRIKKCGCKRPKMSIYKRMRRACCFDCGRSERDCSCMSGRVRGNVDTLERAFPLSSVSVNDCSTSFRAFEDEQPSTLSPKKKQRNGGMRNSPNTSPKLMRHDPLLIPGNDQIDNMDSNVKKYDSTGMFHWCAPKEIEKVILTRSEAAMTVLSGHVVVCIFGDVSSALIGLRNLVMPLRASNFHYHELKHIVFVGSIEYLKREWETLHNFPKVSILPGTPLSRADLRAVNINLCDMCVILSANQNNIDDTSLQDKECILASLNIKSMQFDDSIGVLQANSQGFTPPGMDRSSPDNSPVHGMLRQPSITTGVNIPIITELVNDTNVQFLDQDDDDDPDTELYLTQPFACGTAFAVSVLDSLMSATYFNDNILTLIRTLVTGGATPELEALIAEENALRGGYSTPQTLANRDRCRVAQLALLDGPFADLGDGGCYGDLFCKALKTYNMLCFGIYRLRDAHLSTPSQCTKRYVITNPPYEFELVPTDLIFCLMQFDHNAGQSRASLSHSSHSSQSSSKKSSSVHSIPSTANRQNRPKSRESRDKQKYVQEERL

Chain of maxi-K channels (Q12791 whole entry): as above

## COc1ccc(Cl)cc1[C@]1(F)C(=O)Nc2cc(C(F)(F)F)ccc21 [BMS-204352]
[1]; 10 mg/kg
  behavioural effects of tinnitus: abolished
Fmr1 knockout mouse
  FXS-associated phenotypes: could inhibit the FXS-associated phenotypes
maxi-K channels
  opening of maxi-K channels: potent, effective and uniquely Ca^2+-sensitive opener
[2]; administered two hours after onset of occlusion
  cortical neuroprotection: provided significant levels of cortical neuroprotection
[2]; rat, in vivo
  blood pressure or cerebral blood flow: had no effect on blood pressure or cerebral blood flow

## Nc1ncc(Cc2ccc(Br)cc2)s1 [NS19504, 5-[(4-bromophenyl)methyl]-2-thiazolannine, reference compound]
[3]; 10 μM, steps −40 mV to +70 mV, 200 nM calcium
  enhancement of BKCa current: approximately doubled

## COc1ccc(Cl)cc1[C@@]1(F)C(=O)Nc2cc(C(F)(F)F)ccc21 [R-Maxipost]
[1]; dose not given
  effect on tinnitus: maintained the positive effect on tinnitus

## CC[N+](CC)(CC)CC [TEA, reference compound]
[3]; 5 mM
  suppression of BKCa current: consistently suppressed the BKCa current

## Clc1ccccc1C(c1ccccc1)(c1ccccc1)n1cccn1 [TRAM-34, reference compound]
KNCMA1; IK channel blocker after VSN16R
  effect on residual current: a minor effect on this residual current

## CC(CO)NC(=O)c1cccc(/C=C\CCCC(=O)N(C)C)c1 (centres unmarked) [VSN16]
KNCMA1; no BK beta chains
  effect on current: does not stimulate pig aortic endothelial cells
[4]
  fear conditioning and digging behaviour in wildtype mice: exhibited no-inhibitory effect
Mesenteric arteries
  relaxation of mesenteric arteries: relaxed mesenteric arteries in an endothelium-dependent manner
Mesenteric arteries; high concentrations of the antagonists
  vasorelaxation in the presence of rimonabant, AM 251 or O-1918: antagonized

## CC(NC(=O)c1cccc(/C=C\CCCC(=O)N(C)C)c1)C(=O)O [VSN44R, (Z)-(3-(6-(dimethylamino)-6-oxohex-1-en-1-yl)benzoyI)-D-alanine]
BK channel [5]
  activation of the response of the channel: activation of the response of the channel

## CC(C)(O)[C@H]1O[C@H]2CC[C@@]3(C)[C@@](O)(CC[C@H]4Cc5c([nH]c6ccccc56)[C@@]43C)C2=CC1=O [paxilline, (2R,4bS,6aS,12bS,12cR,14aS)-5,6,6a,7,12,12b,12c,13,14,14a-Decahydro-4b-hydroxy-2-(1-hydroxy-1-methylethyl)-12b,12c-dimethyl-2H-pyrano[2″,3″:5′,6′]benz[1′,2′:6,7]indeno[1,2-b]indol-3(4bH)-one, reference compound]
[3]; 10 μM
  suppression of BKCa current: suppressed
[3]; 10 μM, listed as Paxilline
  suppression of BKCa current: consistently suppressed the BKCa current

## CC(=O)c1c(O)c(C)c(O)c(Cc2c(O)c3c(c(C(=O)/C=C/c4ccccc4)c2O)OC(C)(C)C=C3)c1O [rottlerin]
[6]; bronchoalveolar lavage fluid
  reduction in Th2 cytokines: 20-35%
  reduction in inflammatory cells: 35-40%
[6]; intravenous, within 5 minutes, OVA-asthma mice, P<0.01
  reduction of AHR: 45%
[6]; systemic administration
  methacholine-induced airway hyperreactivity (AHR): reduces methacholine-induced airway hyperreactivity
[7]
  frequency of acetylcholine-induced Ca2+ oscillations: reduces the frequency of acetylcholine-induced Ca^2+ oscillations
Isolated hearts
  cardiac contractile performance and coronary perfusion: increases cardiac contractile performance and coronary perfusion
BK channel [8]
  BK channel activity: increases BK channel activity
